Article PMC7035640 (Parasites & Vectors, 2020)
Where two headings read alike, the source gives them in different places.

Assays:
[1] = tested on: L. donovani cyclophilin A (LdCyPA); assay: Western blotting of LdCyPA expression in promastigotes; type: cell-based, Leishmania donovani; conditions: 48 h; CsA 16 μM, DHCsA-d 12 μM, SSG 20 μM; normalized to α-tubulin
Procedure: (§1) Polyclonal antibodies against LdCyPA were obtained to monitor protein expression. Representative peptides of LdCyPA were analyzed through two predictors for B cells, BEPIPRED and BCPRED12. […] Polyclonal antiserum was produced in New Zealand white rabbits. The rabbits were immunized with Freund’s adjuvant (Sigma-Aldrich), containing 1500 μg of LdCyPA peptide, on days 0, 15 and 30. The rabbits received three subcutaneous injections, the first in complete Freund’s adjuvant and later two in incomplete Freund’s adjuvant. Serum was obtained and antibody titers were estimated by ELISA on 25 and 42 days after the last injection.
(§2) These cells were then lysed with a protein lysis buffer supplemented with protease and phosphatase inhibitors and the protein concentration was determined by the BCA Kit (Beyotime). The extracted proteins were denatured for 5 min at 100 °C after adding appropriate amounts of loading buffer. Approximately 40 to 50 μg of proteins was loaded in each lane of a 12% polyacrylamide gel (Beyotime). […] The PVDF membranes were visualized with an enhanced chemiluminescence western blotting detection kit (Beyotime) and the protein bands were analyzed by densitometric studies using ImageJ software.

[2] = tested on: L. donovani cyclophilin A (LdCyPA); assay: Western blotting of LdCyPA expression in intracellular amastigotes; type: cell-based, Leishmania donovani; conditions: 48 h; CsA 10 μM, DHCsA-d 5 μM, SSG 9 μM; normalized to α-tubulin
Procedure: as §1, §2

[3] = tested on: intracellular amastigotes of L. donovani; assay: Transmission electron microscopy of intracellular amastigotes in RAW 264.7 macrophages; type: cell-based, Leishmania donovani; conditions: 48 h, DHCsA-d 5 μM; for Ultrastructure of intracellular amastigotes (mitochondria): CsA 10 μM, SSG 9 μM
Description: (§3) Next, the cells were dehydrated in acetone and embedded in epoxy resin. Stained with lead citrate and observed under a Hitachi HT7700 transmission electron microscope.

[4] = tested on: intracellular amastigotes of Leishmania donovani; assay: Intracellular amastigote inhibition in infected RAW 264.7 macrophages, Wright's stain and microscopy; type: cell-based; conditions: for Number of intracellular amastigotes compared to untreated (Wright's staining): CsA 10 μM, DHCsA-d 5 μM, SSG 9 μM; for IC50: intracellular amastigotes in RAW 264.7, mean ± SD
Procedure: (§4) Leishmania donovani strain MHOM/CN/IN/80/DD8 was used in this study. Leishmania promastigotes in the logarithmic phase were cultured at 28 °C in M199 medium at pH 7.4 (Sigma-Aldrich, Saint Louis, MO, USA), supplemented with 10% fetal bovine serum (Hyclone, Logan, UT, USA) and antibiotics (Pen-Strep, 100 U/ml penicillin-100 […] streptomycin sulphate).
(§5) RAW 264.7 cells (5.0 × 10^5 cells/per well) were plated on round glass coverslips in 24-well plates and allowed to adhere to the slides for 24 h at 37 °C, 5% CO2, in PRMI 1640 medium (Gibco, Franklin, TN, USA) supplemented with 10% FBS (Gibco). Adherent macrophages were infected with L. donovani promastigotes, at a macrophages-to-parasite ratio of 1:20 for 6 h at 37 °C, 5% CO2. Next, the non-infected parasites were removed by washing three times with PBS, and the infected macrophages were incubated in 37 °C in 5% CO2 with PRMI 1640 medium and 10% FBS without drugs for 24 h. […] At 24 and 48 h, the glass coverslips were fixed in methanol (Solarbio, Beijing, China) and stained with Wright’s stain (Solarbio). The numbers of parasites were determined using light microscopy by counting at least 200 cells per slide. The results are expressed as means of three independent experiments. The 50% inhibitory concentration (IC50) was calculated for promastigotes and intracellular amastigotes by fitting the values to a non-linear curve analysis.
(§6) All experiments were carried out in triplicates and repeated at least three times and the figures shown are representative of these experiments. IC50 were calculated according to a nonlinear regression using a log inhibitor-versus response equation with 95% confidence intervals in the GraphPad Prism 6.0 software. The data were analyzed using Student’s t-test for comparison of two groups and data values were expressed as the mean ± standard deviation (SD). Significant differences were determined and designated with asterisks as follows: *P < 0.05; **P < 0.01; ***P < 0.001 and ****P < 0.0001.

[5] = tested on: murine macrophages (RAW 264.7); assay: Cytotoxicity assessment, Cell Counting Kit-8; type: cell-based, mouse
Procedure: Murine macrophages were cultivated in a 96-well plate using PRIM 1640 medium containing 10% FBS and maintained at 37 °C, 5% CO2, for 24 h. […] The cytotoxicity was measured at 24 and 48 h following a standard protocol.

cyclophilin A (CyPA) = assay: Western blotting of CyPA expression in RAW 264.7 cells; type: cell-based, mouse; conditions: 48 h; CsA 10 μM, DHCsA-d 5 μM, SSG 9 μM; normalized to α-tubulin
Procedure: These cells were then lysed with a protein lysis buffer supplemented with protease and phosphatase inhibitors and the protein concentration was determined by the BCA Kit (Beyotime). The extracted proteins were denatured for 5 min at 100 °C after adding appropriate amounts of loading buffer. Approximately 40 to 50 μg of proteins was loaded in each lane of a 12% polyacrylamide gel (Beyotime). Proteins were separated at 120 V until the dye front reached the bottom of the gel, followed by transfer of the gels to polyvinylidene fluoride (PVDF) membranes (EMD, MA, USA) in transfer buffer (25 mM Tris-HCl, 192 mM glycine, 20% methanol, 0.02% SDS, pH 8.3) and run at 200 mA for 60 min. The membranes were then soaked in a blocking buffer (1 × PBS, 0.1% Tween 20) and supplemented with 1% bovine serum albumin (Sigma-Aldrich) for 2 h, before incubating overnight at 4 °C individually with LdCyPA polyclonal antibody, CyPA antibody (Affinity, Dublin, OH, USA) and α-tubulin antibody (Affinity) at appropriate dilutions. All the primary antibodies were used at a 1:4000 dilution and horseradish peroxidase-conjugated anti-rabbit immunoglobulin secondary antibodies (Affinity) were used at a 1:5000 dilution. The PVDF membranes were visualized with an enhanced chemiluminescence western blotting detection kit (Beyotime) and the protein bands were analyzed by densitometric studies using ImageJ software.

[6] = tested on: L. donovani promastigotes; assay: Transmission electron microscopy of promastigotes; type: cell-based, Leishmania donovani; conditions: 48 h; CsA 16 μM, DHCsA-d 12 μM, SSG 20 μM
Description: as §3

[7] = tested on: L. donovani infected macrophages (RAW 264.7); assay: Cytokine quantification by ELISA in supernatants of L. donovani-infected RAW 264.7 macrophages; type: cell-based, mouse; conditions: 24 h, 48 h and 72 h; CsA 10 μM, DHCsA-d 5 μM, SSG 9 μM
Procedure: (§7) Mouse RAW 264.7 macrophages (5.0 × 10^5 cells/per well), adhered for 24 h at 37 °C, 5% CO2, in PRMI 1640 medium supplemented with 10% FBS were infected with promastigotes at a macrophages-to-parasite ratio of 1:20 for 6 h at 37 °C, 5% CO2, and subsequently the non-infected parasites were removed by washing three times with PBS. Infected macrophages were incubated in PRMI 1640 medium and 10% FBS at 37 °C, 5% CO2, without drugs for 24 h. […] The cells were further incubated for 3 days, and the medium supernatants were retrieved at 24, 48 and 72 h. Subsequently, the cytokines IL-12, IL-10, IL-4, IFN-γ and TNF-α were measured utilizing the BD OpitELA ELISA Kit (BD). NO and H2O2 concentrations in the supernatants were detected by nitric oxide and hydrogen peroxide assay kits (Beyotime), respectively.

[8] = tested on: L. donovani promastigotes; assay: Promastigote inhibition, flow cytometry (annexin V-FITC/PI); type: cell-based, Leishmania donovani; conditions: mean ± SD of three independent experiments
Procedure: as §4
Inhibition rate (%) was calculated as follows: Inhibition rate (%) = 100% − [(No. of live parasites in treated sample/No. of live parasites in untreated control) × 100%].
as §5, with “experiments.” for “experiments. The 50% inhibitory concentration (IC50) was calculated for promastigotes and intracellular amastigotes by fitting the values to a non-linear curve analysis.”
as §6

[9] = tested on: L. donovani infected macrophages (RAW 264.7); assay: NO and H2O2 quantification in supernatants of L. donovani-infected RAW 264.7 macrophages; type: cell-based, mouse; conditions: 24 h, 48 h and 72 h; CsA 10 μM, DHCsA-d 5 μM, SSG 9 μM
Procedure: as §7

[10] = 24 h, mean ± SD, read-out: Cytotoxicity (RAW 264.7) CC50
[11] = 48 h, mean ± SD, read-out: Cytotoxicity (RAW 264.7) CC50

CCCC[C@@H](C)[C@@H](O)[C@H]1C(=O)N[C@@H](CC)C(=O)N(C)CC(=O)N(C)[C@@H](CC(C)C)C(=O)N[C@@H](C(C)C)C(=O)N(C)[C@@H](CC(C)C)C(=O)N[C@@H](C)C(=O)N[C@H](C)C(=O)N(C)[C@@H](CC(C)C)C(=O)N(C)[C@@H](CC(C)C)C(=O)N(C)[C@@H](C(C)C)C(=O)N1C [DHCsA-d, dihydrocyclosporin A]
Expression of LdCyPA in promastigotes vs untreated [1]: no significant changes | Expression of LdCyPA in intracellular amastigotes vs untreated [2]: no significant changes | Ultrastructure of intracellular amastigotes (mitochondria) [3]: disintegrated | Share of intracellular amastigotes degraded in parasitophorous vacuoles [3]: Almost half | Number of intracellular amastigotes compared to untreated (Wright's staining) ([4]; 24 h): reduced | IC50 ([4]; 24 h): 5.23 ± 2.1 µM | Number of intracellular amastigotes compared to untreated (Wright's staining) ([4]; 48 h): basically absent | IC50 ([4]; 48 h): 4.84 ± 0.4 µM | CC50 [5, 10]: 7.98 ± 0.4 µM | CC50 [5, 11]: 6.65 ± 0.7 µM | Expression of CyPA in RAW 264.7 cells vs untreated (cyclophilin A (CyPA)): no significant changes | Ultrastructure of promastigote mitochondria [6]: completely disorganized | IFN-γ level vs untreated infected cells [7]: significant increases | IL-4 level vs untreated infected cells [7]: significantly decreased | IL-10 level vs untreated infected cells [7]: significantly decreased | IL-12 level vs untreated infected cells [7]: significant increases | TNF-α level vs untreated infected cells [7]: significant increases | IC50 ([8]; 24 h): 21.2 ± 1.2 µM | IC50 ([8]; 48 h): 12.1 ± 1.1 µM | H2O2 production vs untreated infected cells [9]: significantly decreased | NO production vs untreated infected cells [9]: significantly decreased

O.O.O.O.O.O.O.O.O.O=C([O-])[C@@H]1[O][Sb](=[O])([O][Sb]2(=[O])[O][C@H]([C@H](O)CO)[C@H](O)[C@H](C(=O)[O-])[O]2)[O][C@H]([C@H](O)CO)[C@@H]1O.[Na+].[Na+].[Na+] (stereo partly drawn) [SSG, Sodium stibogluconate]
Expression of LdCyPA in promastigotes vs untreated [1]: no significant changes | Expression of LdCyPA in intracellular amastigotes vs untreated [2]: no significant changes | Ultrastructure of intracellular amastigotes (mitochondria) [3]: disintegrated | Number of intracellular amastigotes compared to untreated (Wright's staining) ([4]; 24 h): reduced | IC50 ([4]; 24 h): 9.51 ± 0.5 µM | Number of intracellular amastigotes compared to untreated (Wright's staining) ([4]; 48 h): basically absent | IC50 ([4]; 48 h): 8.27 ± 0.1 µM | CC50 [5, 10]: > 120 µM | CC50 [5, 11]: > 120 µM | CC50 ([5]; RAW 264.7, time not given in the sentence, read-out: CC50): > 120 µM | Expression of CyPA in RAW 264.7 cells vs untreated (cyclophilin A (CyPA)): no significant changes | Ultrastructure of promastigote mitochondria [6]: completely disorganized | IFN-γ level vs untreated infected cells [7]: significant increases | IL-4 level vs untreated infected cells [7]: significantly decreased | IL-10 level vs untreated infected cells [7]: significantly decreased | IL-12 level vs untreated infected cells [7]: significant increases | TNF-α level vs untreated infected cells [7]: significant increases | IC50 ([8]; 24 h): 32.3 ± 1.6 µM | IC50 ([8]; 48 h): 20.2 ± 1.4 µM | H2O2 production vs untreated infected cells [9]: significantly decreased | NO production vs untreated infected cells [9]: significantly decreased
